Experimental data as given in US20040248245A1, “Zinc activated ion channel” (priority 2003, published 2004).

Each compound was assayed against T1, human ZAC (zinc activated ion channel) (Homo sapiens, UniProt Q401N2) (assay: Whole cell patch-clamp recording of currents from HEK cells transfected with human ZAC). Details: not given.
T1 construct: expressed in transfected cells; host or cells: HEK (human embryonic kidney) cells, transient calcium phosphate transfection, vector pcDNA1.1/amp, GFP co-transfected on a separate plasmid (pCDM8)
T1 sequence (Q401N2 26-412): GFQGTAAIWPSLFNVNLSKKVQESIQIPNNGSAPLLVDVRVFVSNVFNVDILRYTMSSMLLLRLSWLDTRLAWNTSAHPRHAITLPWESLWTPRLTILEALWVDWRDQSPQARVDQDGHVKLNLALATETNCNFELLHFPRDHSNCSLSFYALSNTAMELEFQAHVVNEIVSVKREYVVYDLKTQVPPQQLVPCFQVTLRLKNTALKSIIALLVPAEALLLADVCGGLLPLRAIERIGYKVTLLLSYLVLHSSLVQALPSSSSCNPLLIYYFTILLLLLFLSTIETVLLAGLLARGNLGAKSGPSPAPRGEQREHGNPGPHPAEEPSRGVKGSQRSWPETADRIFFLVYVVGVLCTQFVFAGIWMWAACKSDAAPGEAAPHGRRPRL
Format: cell-based
Description: To generate HEK expressing hZAC, HEK cells were grown in Dulbecco's modified Eagle's medium, supplemented with 10% calf serum, 100 IU/ml penicillin, and 100 μg/ml streptomycin. Following confluence, the cells were seeded into 35 mm diameter dishes and transfected with cDNAs encoding the human ZAC subunit (in pcDNA1.1/amp) and green fluorescent protein (GFP) (in pCDM8). Cells were transfected using calcium phosphate precipitation as known in the art. Cells were used 24-44 h after transfection.
The whole cell patch-clamp technique was used to record currents from HEK cells. The bath was perfused continuously (5 ml/min) with an extracellular solution containing (in mM); NaCl, 140; KCl, 4.7; MgCl2, 1.2; CaCl2, 2.5; glucose, 11; and HEPES, 10 (pH 7.4 with NaOH). The electrode solution contained (in mM); KCl, 140; MgCl2, 2.0; EGTA, 11; and HEPES, 10 (pH 7.4 with KOH). The intracellular solution used to characterize the cation permeability of ZAC channels contained (in mM); KCl, 70; N-methyl-D-glucamine, 70; MgCl2, 2.0; EGTA, 11; and HEPES, 10 (pH 7.4 with HCl). The intracellular solution used to determine the contribution of Cl^− to the ZAC currents contained (in mM); KCl, 70; K^+ gluconate, 70; MgCl2, 2.0; EGTA, 11; and HEPES, 10 (pH 7.4 with KOH). Junction potentials were nulled prior to each experiment. Inappropriate inappropriate compensation was ignored in graphs of current-voltage relationships, but equilibrium potential values were corrected. Cells were clamped at −60 mV unless otherwise stated. Drugs were applied either by pressure ejection from modified micropipettes or by bath perfusion as known in the art. Experiments were performed at 22-24° C.
Currents were amplied (Axopatch 200A, Axon Instruments), low pass-filtered at 1 kHz, and digitized (Digidata 1320, Axon Instruments, Foster City, Calif.) for acquisition onto the hard drive of a personal computer. Currents were averaged, superimposed, and measured using pCLAMP software (Axon Instruments). Zn^+2 concentration-response data were obtained by prolonged (2 s) pressue ejection of randomized agonist concentrations from low resistance pipettes as known in the art.
To compensate, 1 mM Zn^+2 was applied before each concentration of Zn^+2. The amplitudes of the Zn^+2 activated currents were subsequently normalized to the current elicited by the prior application of 1 mM Zn^+2.
Graphs of concentration-response relationships were fitted using a logistic function as known in the art. Current-voltage relationships were analyzed by averaging at least two currents recorded at each holding potential. Individual current-voltage relationships were plotted, and a linear fit to points either side of current reversal yielded the equilibrium potential. All data are expressed as the arithmetic mean±S.E., and statistical comparisons were made using the Student's t test.
With CNC[C@H](O)c1ccc(O)c(O)c1 [epinephrine] the “Activation of ZAC” value was “did not activate”. For CN1CC[C@]23c4c5ccc(O)c4O[C@H]2[C@@H](O)C=C[C@H]3[C@H]1C5 [morphine], the “Activation of ZAC” value was “did not activate”. In the case of CC(C)c1cccc(C(C)C)c1O [propofol], the “Activation of ZAC” value is reported as “did not activate”. With α-bungarotoxin the “Effect of antagonists on ZAC (inhibition)” value (“Effect … (inhibition)” for short) was “no effect”.

Same assay, conditions: HEK cells expressing hZAC, whole cell patch-clamp
COc1cc2c3cc1Oc1cc(ccc1O)C[C@@H]1c4c(cc(OC)c(O)c4Oc4ccc(cc4)C[C@@H]3N(C)CC2)CC[N+]1(C)C [Tubocurarine] was tested, and the “Effect … (inhibition)” value was “inhibited”. [Zn+2] [Zn^+2, zinc] was tested, and the “Concentration required for activation of ZAC” value was > 30 µM. In the case of C[N+]1(C)CCc2cc3c(cc2[C@H]1[C@@H]1OC(=O)c2c1ccc1c2OCO1)OCO3.[I-] [bicuculline methiodide], the “Effect … (inhibition)” value is reported as “no effect”. CNC1(C)C2CCC(C2)C1(C)C (stereo not shown) [mecamylamine] was tested, and the “Effect … (inhibition)” value was “no effect”. Cc1nccn1CC1CCc2c(c3ccccc3n2C)C1=O (stereo not shown) [ondansetron] was tested, and the “Effect … (inhibition)” value was “no effect”.

Same assay, conditions: HEK cells expressing hZAC, whole cell patch-clamp, clamped at −60 mV, 22-24° C.
In the case of NCCc1c[nH]c2ccc(O)cc12 [5-HT, 5-hydroxytryptamine], the “Activation of ZAC” value is reported as “did not activate”. With Nc1ncnc2c1ncn2[C@@H]1O[C@H](COP(=O)(O)OP(=O)(O)OP(=O)(O)O)[C@@H](O)[C@H]1O [ATP] the “Activation of ZAC” value was “did not activate”. NCCCC(=O)O [GABA, γ-amino butyric acid] was tested, and the “Activation of ZAC” value was “did not activate”. With [Zn+2] [Zn^+2, zinc] the “Activation of ZAC” value was “activated”. CC(=O)[C@H]1CC[C@H]2[C@@H]3CC[C@H]4C[C@H](O)CC[C@]4(C)[C@H]3CC[C@]12C [allopregnanolone] was tested, and the “Activation of ZAC” value was “did not activate”. NCCc1ccc(O)c(O)c1 [dopamine] was tested, and the “Activation of ZAC” value was “did not activate”. N[C@@H](CCC(=O)O)C(=O)O [glutamate] was tested, and the “Activation of ZAC” value was “did not activate”. In the case of N[C@@H](CCC(=O)N[C@@H](CS)C(=O)NCC(=O)O)C(=O)O [glutathione], the “Activation of ZAC” value is reported as “did not activate”. For NCC(=O)O [glycine], the “Activation of ZAC” value was “did not activate”. With NCCc1c[nH]cn1 [histamine] the “Activation of ZAC” value was “did not activate”. With CNC1(c2ccccc2Cl)CCCCC1=O (stereo not shown) [ketamine] the “Activation of ZAC” value was “did not activate”. With CC[C@H](C)[C@@H]1NC(=O)[C@H](Cc2ccc(O)cc2)NC(=O)[C@@H](N)CSSC[C@@H](C(=O)N2CCC[C@H]2C(=O)N[C@@H](CC(C)C)C(=O)NCC(N)=O)NC(=O)[C@H](CC(N)=O)NC(=O)[C@H](CCC(N)=O)NC1=O [oxytocin] the “Activation of ZAC” value was “did not activate”. galonin was tested, and the “Activation of ZAC” value was “did not activate”. With neuropeptide Y the “Activation of ZAC” value was “did not activate”. For somatostain, the “Activation of ZAC” value was “did not activate”.

Same assay, conditions: HEK cells expressing hZAC, whole cell patch-clamp; mean±S.E.
In the case of [Zn+2] [Zn^+2, zinc], the “Equilibrium potential of Zn+2 activated currents” value is reported as −5±1 mV.
